Activity calls are given as the source filed them. No cut-off for these calls is given here.
What was measured:
U-251 [1] = experiment: Cytotoxicity against human U-251 cells at upto 30 uM measured after 2 hrs by CytTox 96 non-radioactive cytotoxicity assay; assay type: functional, cell-based
U-251 [2] = experiment: Antiproliferative activity against human U-251 cells assessed as inhibition of cell growth at 30 uM measured after 72 hrs by MTT assay relative to control; assay type: functional; set-up: scale not given: the % may be the effect or the level left

Compound: C[C@H](CCC(=O)N[C@H](CC(=O)O)Cc1cn(S(=O)(=O)c2ccc(C(F)(F)F)cc2)c2ccccc12)[C@H]1CC[C@H]2[C@@H]3CC=C4C[C@@H](O)CC[C@]4(C)[C@H]3CC[C@]12C
- Activity (U-251 [1]): inactive
- Activity (U-251 [2]): 100%

Source: ChEMBL document CHEMBL5614382, “Discovery of a new 1-(phenylsulfonyl)-1H-indole derivative targeting the EphA2 receptor with antiproliferative activity on U251 glioblastoma cell line” (Eur J Med Chem, 2024)
